Experimental findings from patent publication US8802700B2 (Vertex Pharmaceuticals Incorporated, priority 2010, dated 2014) are described below.

The term EC50 denotes the concentration needed to bring the measured effect to its halfway point.

SMILES strings stand for the structures.

The target in one test is T1, ΔF508-CFTR (Homo sapiens, UniProt P13569, DEL508-508).
T1 construct: expressed in transfected cells
T1 sequence (P13569 with tags, fused parts or gaps DEL508-508): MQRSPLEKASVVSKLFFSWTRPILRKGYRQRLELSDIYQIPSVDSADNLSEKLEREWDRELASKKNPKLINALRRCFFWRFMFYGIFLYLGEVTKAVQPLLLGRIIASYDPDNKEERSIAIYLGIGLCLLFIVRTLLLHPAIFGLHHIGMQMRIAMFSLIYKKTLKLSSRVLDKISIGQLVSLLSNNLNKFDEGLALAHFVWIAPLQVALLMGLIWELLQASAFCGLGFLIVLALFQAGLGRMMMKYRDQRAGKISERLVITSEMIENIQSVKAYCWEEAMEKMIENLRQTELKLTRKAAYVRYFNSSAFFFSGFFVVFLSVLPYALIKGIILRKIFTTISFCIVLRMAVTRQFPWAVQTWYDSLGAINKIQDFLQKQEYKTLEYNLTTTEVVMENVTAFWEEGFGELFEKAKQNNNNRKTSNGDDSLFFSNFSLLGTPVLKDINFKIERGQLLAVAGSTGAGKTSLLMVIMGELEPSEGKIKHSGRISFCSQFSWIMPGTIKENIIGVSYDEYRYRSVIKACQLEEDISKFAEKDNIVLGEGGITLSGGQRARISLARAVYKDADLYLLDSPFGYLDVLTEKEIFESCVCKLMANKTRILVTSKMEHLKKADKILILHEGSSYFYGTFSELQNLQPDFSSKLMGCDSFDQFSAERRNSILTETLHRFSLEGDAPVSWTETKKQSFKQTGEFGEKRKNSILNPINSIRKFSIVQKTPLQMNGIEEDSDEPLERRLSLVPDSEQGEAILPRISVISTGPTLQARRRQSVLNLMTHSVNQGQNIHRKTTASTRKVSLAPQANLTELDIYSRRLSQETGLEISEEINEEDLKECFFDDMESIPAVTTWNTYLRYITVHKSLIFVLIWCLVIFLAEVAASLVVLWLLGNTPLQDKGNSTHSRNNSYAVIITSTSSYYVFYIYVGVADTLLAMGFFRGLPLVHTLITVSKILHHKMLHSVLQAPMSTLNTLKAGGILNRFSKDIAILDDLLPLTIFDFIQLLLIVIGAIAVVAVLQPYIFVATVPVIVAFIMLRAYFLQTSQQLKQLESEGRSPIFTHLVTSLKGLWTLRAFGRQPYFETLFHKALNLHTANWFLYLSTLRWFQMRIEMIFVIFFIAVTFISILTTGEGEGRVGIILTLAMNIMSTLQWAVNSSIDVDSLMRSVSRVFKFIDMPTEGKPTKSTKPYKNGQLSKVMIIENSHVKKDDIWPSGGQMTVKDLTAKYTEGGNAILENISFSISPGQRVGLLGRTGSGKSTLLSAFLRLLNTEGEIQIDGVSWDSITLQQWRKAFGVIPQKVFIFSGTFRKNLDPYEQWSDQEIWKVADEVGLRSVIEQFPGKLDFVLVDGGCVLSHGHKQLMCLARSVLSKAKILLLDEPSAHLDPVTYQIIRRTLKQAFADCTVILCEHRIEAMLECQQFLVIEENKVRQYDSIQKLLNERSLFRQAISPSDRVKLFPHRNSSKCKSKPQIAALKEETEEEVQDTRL
Put plainly: Membrane potential optical assay (FRET voltage-sensor dyes, VIPR), identification of potentiator compounds. It counts as cell-based. Conditions: Table 3; assay not given. An outline of the steps: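 NIH3T3 mouse fibroblasts stably expressing ΔF508-CFTR, cultured 24 h at 27 °C, were loaded with FRET voltage dyes CC2-DMPE and DiSBAC2(3). Double-addition format: first addition of Cl⁻-free (gluconate) medium with or without compound; membrane-potential change read as fluorescence on VIPR II.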
As for `CC(=O)Nc1ccc(C(C)C)c(NC(=O)c2c[nH]c3ccccc3c2=O)c1` [Compound 243, N-(5-acetylamino-2-isopropyl-phenyl)-4-oxo-1H-quinoline-3-carboxamide], the EC50 was in the range of 10 to 25 µM. Same read-out and setting: the figure for `N#CCc1ccc(-c2ccccc2NC(=O)c2c[nH]c3ccccc3c2=O)cc1` [Compound 333, N-[2-[4-(cyanomethyl)phenyl]phenyl]-4-oxo-1H-quinoline-3-carboxamide] is less than 10 µM. The same measure, in the same setting: next, `CS(=O)(=O)Nc1cccc(NC(=O)c2c[nH]c3ccccc3c2=O)c1` [Compound 214, N-(3-methylsulfonylaminophenyl)-4-oxo-1H-quinoline-3-carboxamide]: 10 to 25 µM.

Staying with this test, now noted: Table 3; assay not given; read-out: % Activity (% Efficacy, relative efficacy).
With `O=C(Nc1ccc2nc(-c3ccccc3)[nH]c2c1)c1c[nH]c2ccccc2c1=O` [Compound 73, 4-oxo-N-(2-phenyl-3H-benzoimidazol-5-yl)-1H-quinoline-3-carboxamide], the Emax is less than 25%. On the same count and under the same terms, the figure for `CC(C)(C)c1cc(C(C)(C)C)c(NC(=O)c2c[nH]c3ccc(S(=O)(=O)N4CCCC4)cc3c2=O)cc1O` [Compound 255, N-(5-hydroxy-2,4-ditert-butyl-phenyl)-4-oxo-6-pyrrolidin-1-ylsulfonyl-1H-quinoline-3-carboxamide] is 25 to 100%. For `CC(=O)Nc1ccc(C(C)C)c(NC(=O)c2c[nH]c3ccccc3c2=O)c1` [Compound 243, N-(5-acetylamino-2-isopropyl-phenyl)-4-oxo-1H-quinoline-3-carboxamide], the Emax was 25 to 100%. Still for that read-out and setting: the figure for `O=C(Nc1cccc2cccnc12)c1c[nH]c2ccccc2c1=O` [Compound 241, 4-oxo-N-(8-quinolyl)-1H-quinoline-3-carboxamide] is 25 to 100%; for `Cc1ccccc1-c1nc2cc(NC(=O)c3c[nH]c4ccccc4c3=O)ccc2o1` [Compound 329, N-[2-(o-tolyl)benzooxazol-5-yl]-4-oxo-1H-quinoline-3-carboxamide] it is 25 to 100%. Still for that read-out and setting: the figure for `Cc1cccc(NC(=O)c2c[nH]c3ccccc3c2=O)n1` [Compound 173, N-(6-methyl-2-pyridyl)-4-oxo-1H-quinoline-3-carboxamide] is less than 25%; for `Cc1ccccc1NC(=O)c1c[nH]c2ccccc2c1=O` [Compound 459, N-(o-tolyl)-4-oxo-1H-quinoline-3-carboxamide] it is 25 to 100%; for `CCOc1cccc2c(=O)c(C(=O)Nc3ccc(C(C)C)cc3C(F)(F)F)c[nH]c12` [Compound 517, 8-ethoxy-N-[4-isopropyl-2-(trifluoromethyl)phenyl]-4-oxo-1H-quinoline-3-carboxamide] it is less than 25%. Still for that read-out and setting: the figure for `CC(C)(C)c1ccc(NC(=O)c2c[nH]c3ccccc3c2=O)cc1OCCO` [Compound 458, N-[3-(2-hydroxyethoxy)-4-tert-butyl-phenyl]-4-oxo-1H-quinoline-3-carboxamide] is 25 to 100%; for `O=C(Nc1cc(NS(=O)(=O)CCN2CCCCC2)cc(C(F)(F)F)c1)c1c[nH]c2ccccc2c1=O` [Compound 318, 4-Oxo-N-[3-[2-(1-piperidyl)ethylsulfonylamino]-5-(trifluoromethyl)phenyl]-1H-quinoline-3-carboxamide] it is 25 to 100%. As for `CC1(c2cc(F)c(NC(=O)c3c[nH]c4cccc(O)c4c3=O)cc2O)CCCCC1` [Compound 287, N-[2-fluoro-5-hydroxy-4-(1-methylcyclohexyl)-phenyl]-5-hydroxy-4-oxo-1H-quinoline-3-carboxamide], the Emax fell in the range of 25 to 100%. On the same count and under the same terms, next, `CCC(C)c1c[nH]c2cc(NC(=O)c3c[nH]c4ccccc4c3=O)ccc12` (centres unmarked) [Compound 259, 4-oxo-N-(3-sec-butyl-1H-indol-6-yl)-1H-quinoline-3-carboxamide]: 25 to 100%; `N#CCc1ccc(-c2ccccc2NC(=O)c2c[nH]c3ccccc3c2=O)cc1` [Compound 333, N-[2-[4-(cyanomethyl)phenyl]phenyl]-4-oxo-1H-quinoline-3-carboxamide]: 25 to 100%. On the same count and under the same terms, next, `CC(C)(C)c1cc(C(C)(C)C)c(NC(=O)c2c[nH]c3cc(C#N)ccc3c2=O)cc1O` [Compound 548, 7-cyano-N-(5-hydroxy-2,4-ditert-butyl-phenyl)-4-oxo-1H-quinoline-3-carboxamide]: 25 to 100%; `O=C(Nc1ccccc1-c1ccc(F)cc1F)c1c[nH]c2ccccc2c1=O` [Compound 63, N-[2-(2,4-difluorophenyl)phenyl]-4-oxo-1H-quinoline-3-carboxamide]: 25 to 100%. Still for that read-out and setting: the figure for `CC(C)(C)c1ccc(O)cc1NC(=O)c1c[nH]c2cccc(O)c2c1=O` [Compound 609, 5-hydroxy-N-(5-hydroxy-2-tert-butyl-phenyl)-4-oxo-1H-quinoline-3-carboxamide] is 25 to 100%; for `N#CCc1c[nH]c2cc(NC(=O)c3c[nH]c4ccccc4c3=O)ccc12` [Compound 96, N-[3-(cyanomethyl)-1H-indol-6-yl]-4-oxo-1H-quinoline-3-carboxamide] it is 25 to 100%; for `C[C@@H]1CCCN1c1ccc(NC(=O)c2c[nH]c3ccc(F)cc3c2=O)c(C(F)(F)F)c1` [Compound 684, (R)-6-fluoro-N-(4-(2-methylpyrrolidin-1-yl)-2-(trifluoromethyl)phenyl)-4-oxo-1,4-dihydroquinoline-3-carboxamide] it is 25 to 100%. Take `O=C(Nc1cc(O)c(C(F)(F)F)cc1F)c1c[nH]c2ccccc2c1=O` [Compound 501, N-[2-fluoro-5-hydroxy-4-(trifluoromethyl)phenyl]-4-oxo-1H-quinoline-3-carboxamide]: the Emax lay in the range of 25 to 100%. Still for that read-out and setting: next, `O=C(Nc1ccc(N2CCC[C@H]2CO)cc1C(F)(F)F)c1c[nH]c2ccccc2c1=O` [Compound 634, (S)-N-(4-(2-(hydroxymethyl)pyrrolidin-1-yl)-2-(trifluoromethyl)phenyl)-4-oxo-1,4-dihydroquinoline-3-carboxamide]: 25 to 100%; `COc1nc2ccccc2c(OC)c1C(=O)Nc1ccccc1-c1ccccc1` [Compound 210, 2,4-dimethoxy-N-(2-phenylphenyl)-quinoline-3-carboxamide]: 25 to 100%; `O=C(Nc1cccc2ccccc12)c1c[nH]c2ccccc2c1=O` [Compound 350, N-(1-naphthyl)-4-oxo-1H-quinoline-3-carboxamide]: 25 to 100%. The same measure, in the same setting: the figure for `O=C(Nc1cc(O)c(C2CCCC2)cc1C#CCO)c1c[nH]c2ccccc2c1=O` [Compound 512, N-[4-cyclopentyl-5-hydroxy-2-(3-hydroxyprop-1-ynyl)phenyl]-4-oxo-1H-quinoline-3-carboxamide] is 25 to 100%; for `Cc1ccc(N)cc1NC(=O)c1c[nH]c2ccccc2c1=O` [Compound 94, N-(5-Amino-2-methyl-phenyl)-4-oxo-1H-quinoline-3-carboxamide] it is 25 to 100%; for `CC(C)(C)c1cc(F)c(NC(=O)c2c[nH]c3cc(C#N)ccc3c2=O)cc1O` [Compound 677, 7-cyano-N-(2-fluoro-5-hydroxy-4-tert-butyl-phenyl)-4-oxo-1H-quinoline-3-carboxamide] it is 25 to 100%. On the same count and under the same terms, next, `O=C(Nc1ccccc1-c1ccccc1C(F)(F)F)c1c[nH]c2ccccc2c1=O` [Compound 11, 4-oxo-N-[2-[2-(trifluoromethyl)phenyl]phenyl]-1H-quinoline-3-carboxamide]: 25 to 100%; `O=C(Nc1cc2[nH]ccc2cc1C(F)(F)F)c1c[nH]c2cccc(O)c2c1=O` [Compound 494, 5-hydroxy-4-oxo-N-[5-(trifluoromethyl)-1H-indol-6-yl]-1H-quinoline-3-carboxamide]: 25 to 100%. Regarding `CCOc1ccc(NC(C)=O)cc1NC(=O)c1c[nH]c2ccccc2c1=O` [Compound 132, N-(5-acetylamino-2-ethoxy-phenyl)-4-oxo-1H-quinoline-3-carboxamide], the Emax was less than 25%. On the same count and under the same terms, next, `CN(C)c1ccc(-c2ccccc2NC(=O)c2c[nH]c3ccccc3c2=O)cc1` [Compound 12, N-[2-(4-dimethylaminophenyl)phenyl]-4-oxo-1H-quinoline-3-carboxamide]: 25 to 100%; `O=C(Nc1ccccc1-c1ccc2c(c1)OCO2)c1c[nH]c2ccccc2c1=O` [Compound 135, N-(2-benzo[1,3]dioxol-5-ylphenyl)-4-oxo-1H-quinoline-3-carboxamide]: more than 100%. Same read-out and setting: next, `CS(=O)(=O)Nc1cccc(NC(=O)c2c[nH]c3ccccc3c2=O)c1` [Compound 214, N-(3-methylsulfonylaminophenyl)-4-oxo-1H-quinoline-3-carboxamide]: 25 to 100%; `Cc1ccc(C)c(NC(=O)c2c[nH]c3ccccc3c2=O)c1` [Compound 434, N-(2,5-dimethylphenyl)-4-oxo-1H-quinoline-3-carboxamide]: 25 to 100%; `O=C(Nc1cccc(SC(F)(F)F)c1)c1c[nH]c2ccccc2c1=O` [Compound 456, 4-oxo-N-[3-(trifluoromethylsulfanyl)phenyl]-1H-quinoline-3-carboxamide]: 25 to 100%. Same read-out and setting: the figure for `CC(=O)c1cccc(NC(=O)c2c[nH]c3ccccc3c2=O)c1` [Compound 328, N-(3-acetylphenyl)-4-oxo-1H-quinoline-3-carboxamide] is less than 25%; for `COc1ccccc1NC(=O)c1c[nH]c2ccccc2c1=O` [Compound 80, N-(2-methoxyphenyl)-4-oxo-1H-quinoline-3-carboxamide] it is 25 to 100%; for `O=C(Nc1cc2ccccc2cn1)c1c[nH]c2ccccc2c1=O` [Compound 309, N-(3-isoquinolyl)-4-oxo-1H-quinoline-3-carboxamide] it is less than 25%. Consider `O=C(Nc1cccc2c1CCC2)c1c[nH]c2ccccc2c1=O` [Compound 373, N-indan-4-yl-4-oxo-1H-quinoline-3-carboxamide], for which the Emax was 25 to 100%. On the same count and under the same terms, the figure for `NCc1ccccc1-c1ccc(NC(=O)c2c[nH]c3ccccc3c2=O)cc1` [Compound 86, N-[4-[2-(aminomethyl)phenyl]phenyl]-4-oxo-1H-quinoline-3-carboxamide] is 25 to 100%; for `O=C(Nc1ccc2c(c1)S(=O)(=O)C=C2)c1c[nH]c2ccccc2c1=O` [Compound 446, N-(1,1-dioxobenzothiophen-6-yl)-4-oxo-1H-quinoline-3-carboxamide] it is less than 25%; for `CCc1cccc(CC)c1NC(=O)c1c[nH]c2ccccc2c1=O` [Compound 325, N-(2,6-diethylphenyl)-4-oxo-1H-quinoline-3-carboxamide] it is 25 to 100%. Same read-out and setting: next, `COc1cc(NC(=O)c2c[nH]c3ccc(F)cc3c2=O)cc(C(F)(F)F)c1` [Compound 666, 6-fluoro-N-[3-methoxy-5-(trifluoromethyl)phenyl]-4-oxo-1H-quinoline-3-carboxamide]: 25 to 100%.
